Measurements reported in article PMC6044720 (ACS Omega, 2018).

How the values were obtained:
[1] = Solubility observations; type: physicochemical; conditions: enzyme immunoassay medium, in words
[2] = test system: Swiss albino mice; assay: Formalin-induced hyperalgesia; type: in vivo; conditions: for number of flinching in the inflammatory phase compared to control group: 10 mg kg^–1 i.p.; for inhibition in vivo at 10 mg/kg: Mus musculus, ip, read-out: % inhibition of algesia (analgesic effect), 10 mg kg^–1 i.p. 30 min before formalin, Swiss albino mice
[3] = biological target: COX-1 (Homo sapiens, UniProt P23219); assay: Human whole blood COX-1 assay: calcium ionophore; type: cell-based; conditions: for effect on ionophore-stimulated TXB2 production: 1 μM, in words; for TXB2, +calcium ionophore: compound final concn 1 μM, control 2.00
[4] = biological target: T1, COX-2 (Homo sapiens, UniProt P35354); assay: Human whole blood COX-2 assay: LPS-stimulated PGE2 production; type: cell-based; conditions: for effect on PGE2 production in LPS-stimulated blood: 1 μM, in words; for PGE2, +LPS: compound final concn 1 μM, control 1.98
T1 sequence (P35354 18-604): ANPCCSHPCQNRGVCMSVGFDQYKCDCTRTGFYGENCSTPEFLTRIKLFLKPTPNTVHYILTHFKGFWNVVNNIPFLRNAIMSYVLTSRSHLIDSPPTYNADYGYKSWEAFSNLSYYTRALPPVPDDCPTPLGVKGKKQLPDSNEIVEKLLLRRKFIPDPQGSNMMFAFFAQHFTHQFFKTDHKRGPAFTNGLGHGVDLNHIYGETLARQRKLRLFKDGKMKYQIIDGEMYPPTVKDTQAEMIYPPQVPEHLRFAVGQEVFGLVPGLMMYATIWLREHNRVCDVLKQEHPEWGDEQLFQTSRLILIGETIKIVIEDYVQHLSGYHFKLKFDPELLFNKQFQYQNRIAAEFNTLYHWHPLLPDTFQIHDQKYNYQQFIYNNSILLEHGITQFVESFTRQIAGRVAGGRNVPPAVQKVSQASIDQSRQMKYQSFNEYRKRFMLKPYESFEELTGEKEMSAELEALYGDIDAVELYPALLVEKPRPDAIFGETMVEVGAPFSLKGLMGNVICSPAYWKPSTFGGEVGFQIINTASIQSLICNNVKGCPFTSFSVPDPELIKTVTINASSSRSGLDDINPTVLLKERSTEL

[5] = test system: Swiss albino mice; assay: Carrageenan-induced paw inflammation; type: in vivo; conditions: for paw thickness compared to untreated control group: carrageenan, in words
[6] = In vivo pharmacokinetic study; set-up: species or system rat
[7] = test system: Swiss albino mice; assay: Acute oral toxicity, 14 days; type: in vivo
[8] = biological target: T1, COX-2; assay: Isothermal titration calorimetry with COX-2; type: binding; conditions: phosphate buffer pH 7.4
[9] = male wistar rat, 10 mg kg^–1 i.p.
[10] = male, Wistar, rat, serum, ip, 10 mg/kg

COX-1, sequence (P23219 24-599): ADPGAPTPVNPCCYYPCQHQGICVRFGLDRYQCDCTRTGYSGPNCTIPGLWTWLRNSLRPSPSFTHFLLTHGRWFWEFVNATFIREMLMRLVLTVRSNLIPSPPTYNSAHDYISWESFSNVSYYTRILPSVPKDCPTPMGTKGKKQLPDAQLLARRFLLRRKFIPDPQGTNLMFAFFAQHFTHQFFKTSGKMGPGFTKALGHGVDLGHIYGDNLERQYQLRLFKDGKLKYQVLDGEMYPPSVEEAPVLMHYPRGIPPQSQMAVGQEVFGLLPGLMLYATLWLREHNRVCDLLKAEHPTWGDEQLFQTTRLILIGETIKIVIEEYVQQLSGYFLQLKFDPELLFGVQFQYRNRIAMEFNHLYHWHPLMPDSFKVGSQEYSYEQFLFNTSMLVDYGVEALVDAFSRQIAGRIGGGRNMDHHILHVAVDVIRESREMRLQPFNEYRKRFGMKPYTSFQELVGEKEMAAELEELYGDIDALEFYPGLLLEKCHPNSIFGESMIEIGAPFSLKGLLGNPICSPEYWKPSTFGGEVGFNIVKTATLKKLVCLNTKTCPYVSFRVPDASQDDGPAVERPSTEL

SMILES | number of flinching in the inflammatory phase compared to control group ([2]; in words) | effect on ionophore-stimulated TXB2 production [3] | TXB2, +calcium ionophore [3] [ng/mL] | effect on PGE2 production in LPS-stimulated blood [4] | PGE2, +LPS [4] [ng/mL] | inhibition in vivo at 10 mg/kg [2] [%] | further results
CN1C(=O)C(=Cc2cn(-c3nc(N4CCOCC4)nc(N4CCOCC4)n3)c3ccccc23)C(=O)N(C)C1=O [Compound 5, 1,3-Dimethyl-5-((1-(4,6-dimorpholino-1,3,5-triazin-2-yl)-1H-indol-3-yl)methylene)pyrimidine-2,4,6(1,3,5H)-trione] | – | – | – | – | – | – | solubility in the assay medium [1]: poor solubility
CC1=NN(c2cccc(Cl)c2)C(=O)/C1=C\c1cn(-c2nc(N3CCCC3)nc(N3CCOCC3)n2)c2ccccc12 [Compound 17, (Z)-1-(3-Chlorophenyl)-3-methyl-4-((1-(4-morpholino-6-(pyrrolidin-1-yl)-1,3,5-triazin-2-yl)-1H-indol-3-yl)methylene)-1H-pyrazol-5(4H)-one] | significantly decreased | did not affect | 1.70 | significantly decreased | 1.00 | – | –
O=C(O)Cc1ccccc1Nc1c(Cl)cccc1Cl [Diclofenac, reference compound] | significantly decreased | – | – | – | – | – | –
O=Cc1cn(-c2nc(N3CCOCC3)nc(N3CCOCC3)n2)c2ccccc12 [Compound 2, 1-(4,6-Dimorpholino-1,3,5-triazin-2-yl)-1H-indole-3-carbaldehyde] | significantly decreased | – | – | – | – | 57.4 | –
CC1=NN(c2cccc(Cl)c2)C(=O)/C1=C\c1cn(-c2nc(N3CCCCC3)nc(N3CCCCC3)n2)c2ccccc12 [Compound 22, (Z)-1-(3-Chlorophenyl)-4-((1-(4,6-di(piperidin-1-yl)-1,3,5-triazin-2-yl)-1H-indol-3-yl)methylene)-3-methyl-1H-pyrazol-5(4H)-one] | significantly decreased | – | – | – | – | 61.9 | –
O=C1/C(=C\c2cn(-c3nc(N4CCOCC4)nc(N4CCOCC4)n3)c3ccccc23)c2ccccc2N1c1c(Cl)cccc1Cl [Compound 3, (Z)-1-(2,6-Dichlorophenyl)-3-((1-(4,6-dimorpholino-1,3,5-triazin-2-yl)1H-indolyl)methylene)indolin-2-one] | significantly decreased | – | – | – | – | 55.6 | –
CC1=NN(c2cccc(Cl)c2)C(=O)/C1=C\c1cn(-c2nc(N3CCCCC3)nc(N3CCOCC3)n2)c2ccccc12 [Compound 12, (Z)-1-(3-Chlorophenyl)-3-methyl-4-((1-(4-morpholino-6-(piperidin-1-yl)-1,3,5-triazin-2-yl)-1H-indol-3-yl)methylene)-1H-pyrazol-5(4H)-one] | significantly decreased | did not affect | 1.75 | significantly decreased | 0.95 | 74.2 | paw thickness compared to untreated control group [5]: decrease the paw thickness significantly
CC1=NN(c2cccc(Cl)c2)C(=O)/C1=C\c1cn(-c2nc(Cl)nc(N3CCOCC3)n2)c2ccccc12 [Compound 18, (Z)-4-((1-(4-Chloro-6-morpholino-1,3,5-triazin-2-yl)-1H-indol-3-yl)methylene)-1-(3-chlorophenyl)-3-methyl-1H-pyrazol-5(4H)-one] | significantly decreased | – | – | – | – | 59 | –
CC1=NN(c2cccc(Cl)c2)C(=O)/C1=C\c1cn(-c2nc(N3CCOCC3)nc(N3CCOCC3)n2)c2ccccc12 [Compound 6, (4Z)-1-(3-Chlorophenyl)-3-methyl-4-((1-(4,6-dimorpholino-1,3,5-triazin-2-yl)-1H-indol-3-yl)methylene)-1H-pyrazol-5(4H)-one] | significantly decreased | did not affect | 1.85 | significantly decreased | 0.91 | – | analgesic effect on A23187 pretreatment ([2]; TXA2 stimulator A23187, in words): did not alter; analgesic effect on pretreatment with L-arginine or L-NAME ([2]; given 30 min before compound, in words): did not alter; analgesic effect on pretreatment with substance P ([2]; substance P 30 min before compound, in words): significantly attenuated; Cl/F_obs [6, 9]: 0.0008011 (mg)/(μg/mL)/min; Vz/F_obs [6, 9]: 0.3796 (mg)/(μg/mL); Cmax [6, 10]: 58.5 µg/mL; MRT inf [6, 10]: 8.16 h; Tmax [6, 10]: 3 h; k el [6, 10]: 3.52e-05 s⁻¹; half-life ([6]; male, Wistar, rat, serum, ip, 10 mg/kg, half-life, male wistar rat, 10 mg kg^–1 i.p.): 330 min; half-life ([6]; male, Wistar, rat, serum, ip, 10 mg/kg, t1/2, male wistar rat, 10 mg kg^–1 i.p.): 328 min; mortality or gross behavioral impairment ([7]; 50, 300 and 2000 mg kg^–1, after the 14th day): no mortality or any gross behavioral impairment; maximum tolerable dose ([7]; Swiss albino mice): > 2000 mg kg^–1; tissue histology (liver, kidney, myocardium) ([7]; after 14 days, H and E staining): no significant lesions except for some degree of congestion; toxicity ([7]; dose of 2000 mg kg^–1): did not exhibit toxicity; ΔH COX-2 (ITC) [8]: -40.52 kJ/mol; decrease in paw thickness ([5]; 30 min after carrageenan): 18%; decrease in paw thickness ([5]; 60 min after carrageenan): 14%; paw thickness compared to untreated control group [5]: decrease the paw thickness significantly
O=C1Nc2ccccc2/C1=C/c1cn(-c2nc(N3CCCCC3)nc(N3CCOCC3)n2)c2ccccc12 [Compound 10, (Z)-3-((1-(4-Morpholino-6-(piperidin-1-yl)-1,3,5-triazin-2-yl)-1H-indol-3-yl)methylene)indolin-2-one] | significantly decreased | did not affect | 1.55 | significantly decreased | 1.02 | 54.9 | –
COc1ccc2c(c1)c(CC(=O)O)c(C)n2C(=O)c1ccc(Cl)cc1 [Indomethacin, reference compound] | – | – | – | – | – | – | decrease in paw thickness ([5]; 30 min after carrageenan): 30%; decrease in paw thickness ([5]; 60 min after carrageenan): 25%; paw thickness compared to untreated control group [5]: decrease the paw thickness significantly
O=C1Nc2ccccc2/C1=C/c1cn(-c2nc(N3CCOCC3)nc(N3CCOCC3)n2)c2ccccc12 [Compound 4, (Z)-3-((1-(4,6-Dimorpholino-1,3,5-triazin-2-yl)-1H-indol-3-yl)methylene)indolin-2-one] | significantly decreased | – | – | – | – | 61.3 | –
